Experimental data reported in patent publication US8835652B2, “Delta crystalline form of the arginine salt of perindopril, a process for its preparation, and pharmaceutical compositions containing it” (Les Laboratoires Servier, priority 2012, dated 2014).
Where a name gives a salt, the structure may show the parent alone.

Experiment: Thermal stability at 110° C. in an open flask (HPLC purity)
Assay type: physicochemical
Protocol: The thermal stability of the delta form at 110° C. in an open flask was compared to that of forms from the prior art.

[1] = 76 hours at 110° C., open flask
[2] = t = 0, before heating (baseline of the thermal stability test)

Structure (SMILES)	HPLC purity (%) [1]	HPLC purity (%) [2]	Thermal stability compared to the other known forms (110° C., open flask)
CCC[C@H](N[C@@H](C)C(=O)N1[C@H](C(=O)O)C[C@@H]2CCCC[C@@H]21)C(=O)OCC.N=C(N)NCCC[C@H](N)C(=O)O [Form obtained according to the process of SI 23001]	86.9%	99.1%	
CCC[C@H](N[C@@H](C)C(=O)N1[C@H](C(=O)O)C[C@@H]2CCCC[C@@H]21)C(=O)OCC [perindopril L-arginine salt]	99.5%	99.7%	improved thermal stability
CCC[C@H](N[C@@H](C)C(=O)N1[C@H](C(=O)O)C[C@@H]2CCCC[C@@H]21)C(=O)OCC.N=C(N)NCCC[C@H](N)C(=O)O [α form according to EP 1 989 182]	98.8%	99.8%	
CCC[C@H](N[C@@H](C)C(=O)N1[C@H](C(=O)O)C[C@@H]2CCCC[C@@H]21)C(=O)OCC.N=C(N)NCCC[C@H](N)C(=O)O [β form according to EP 2 016 051]	98.3%	99.6%	
CCC[C@H](N[C@@H](C)C(=O)N1[C@H](C(=O)O)C[C@@H]2CCCC[C@@H]21)C(=O)OCC.N=C(N)NCCC[C@H](N)C(=O)O [γ form according to WO 2009/157018]	93.4%	99.7%	
